Source: patent US20170080198A1, “DEVICES AND METHODS FOR ENHANCING THE TOPICAL APPLICATION OF A BENEFIT AGENT” (Johnson & Johnson Consummer Inc., priority 2015, published 2017)

Assay: In vitro skin permeation study, Franz diffusion cell, with or without ultrasound (sonophoresis)
Format: in vitro ADME, human
Conditions: for UT60°/Non-UTGel 1 (permeation enhancement factor): Study 2, Gel 1 with 60° sonophoresis vs Gel 1 passive; for UT15°/Non-UTGel 1 (permeation enhancement factor) / UT90°/Non-UTGel 1 (permeation enhancement factor): Study 3; for UT15°/Non-UTGel 1 (permeation enhancement factor): Gel 1 with 15° sonophoresis vs Gel 1 passive; for UT90°/Non-UTGel 1 (permeation enhancement factor): Gel 1 with 90° sonophoresis vs Gel 1 passive
Source text: The experimental setup to run sonophoresis (ultrasound) studies with Franz cell diffusion cells consisted of a custom-built universal generator capable of driving ultrasonic transducers in the 20 kHz-2 MHz range with electronic power up to 60 W (Voltage+/−30V, Current: 2A, duty cycle 50%) with a square waveform. The real power delivered to the transducer depended on the specific experimental conditions and is specified for each experiment. The driving waveform was delivered to the transducer through a coaxial cable having a BNC connector at one end and a custom non-coaxial connector at the transducer end.
The tranducer was piezoelectric and had either a disk shaped form (either 20 or 25 mm in diameter) or a rectangular shape 10×20 mm^2). The thickness of the transducer depended on its fundamantal frequency being inversely proportional with it. In order to prevent the liquid or the gel from perturbing the electrical connection, each transducer was encapsulated in a plastic case leaving only one side of the transducer exposed to the topical composition. The case was made out of a rigid plastic and the transducers were sealed with silicone adhesive to enable them to oscilalte more or less freely. The case also enabled the electrical connections to be isolated from the topical composition.
For sonophoresis experiments where the ultrasonic wave energy was delivered perpendicular to the skin, disk-shaped transducers were used in the encapsulation setup described above. For the angled ultrasound application the case encapsulating the ultrasonic transducer was assembled in a hinged configuration, enabling angles between 15 and 90 degrees (perpendicular). Note: an angle of 0 degrees would send the ultrasonic wave parallel with the skin surface.
In vitro skin permeation studies on 5% Ibuprofen gel compositions without ultrasound (passive diffusion), or facilitated by the application of ultrasound (sonophoresis), through human cadaver skin were performed as follows:
A skin penetration study evaluated the penetration of ibuprofen through the human skin for the inventive sample prepared as disclosed in Example 1. A commercial ibuprofen gel product, IBULEVE Ibuprofen Gel (by DDD ltd, Watford, Herts, WD18 7JJ, UK) was used as a benchmark, which contains 5% W/W ibuprofen, also IMS (Industrial Methylated Spirits), carbomer, propylene glycol, diethylamine and purified water according to the product label on its package. A well-known Franz diffusion cell method (taught in US20020006418 A1 which is hereby incorporated by reference) was used. […] A magnetic stirrer bar was added in the […]. The liquid receptor was filled with Phosphate-buffered saline (PBS) solution. Air bubbles in the […] were removed. The system was thermostated at 37° C. above a magnetic stirrer to ensure the homogeneity of the liquid receptor during the experiment. A human cadaver skin sample from a commercial tissue bank (Ohio Valley Tissue and Skin Center, Cincinnati, Ohio, dermatomed to approximately 0.4 mm) was cut to fit the glass diffusion cell and the skin was mounted on the Franz cell.
For the diffusion cells designated to be tested for passive diffusion, a test gel sample of 0.2 ml was applied on the skin surface. For the diffusion cells designated to test for sonophoresis, additional test sample (2-5 ml) was added in order to assure the entire, or at least a large portion, of the ultrasonic transducer tip was immersed by the test gel during the ultrasound treatment. The excess gel was promptly removed from the donor cell after the ultrasound treatment so that the remaining test gel was approximately 0.2 ml.
Ultrasound treatments were carried out with the following test conditions: • a) Conventional ultrasound treatment with 90 degree angle (°) between the ultrasound direction and the skin surface; • b) Angled Ultrasound treatment with less than 90 degree angle between the ultrasound direction and the skin surface. […]

CC(C)Cc1ccc(C(C)C(=O)O)cc1 (stereo not drawn) [ibuprofen]
UT60°/Non-UTGel 1 (permeation enhancement factor) (6 hr): approximately 2.9 fold | UT60°/Non-UTGel 1 (permeation enhancement factor) (24 hr): ~2.0 fold | UT15°/Non-UTGel 1 (permeation enhancement factor) (6 hr): approximately 3.0 fold | UT15°/Non-UTGel 1 (permeation enhancement factor) (24 hr): approximately 3.0 fold | UT90°/Non-UTGel 1 (permeation enhancement factor) (6 hr): approximately 2.3 fold | UT90°/Non-UTGel 1 (permeation enhancement factor) (24 hr): ~2.0 fold
